Data on four compounds can be found in PubChem BioAssay AID1259407 (Chemical Carcinogenesis Research Information System (CCRIS), 2018).

SMILES strings stand for the structures. Activity calls are given as the source filed them. The rule behind the calls is not given here.

In this data set the test system is CCRIS mutagenicity, Ames/micronucleus/aberration tests. Description: CCRIS mutagenicity studies.
[1] abbreviates: Test System: AMES SALMONELLA TYPHIMURIUM, Strain/Indicator: TA97, Metabolic Activation: HAMSTER, LIVER, S-9, AROCLOR 1254 (10 OR 30%), Method: PREINCUBATION
Setting [2] is: Test System: AMES SALMONELLA TYPHIMURIUM, Strain/Indicator: TA97, Metabolic Activation: NONE, Method: PREINCUBATION
The mark [3] stands for this setting: Test System: AMES SALMONELLA TYPHIMURIUM, Strain/Indicator: TA97, Metabolic Activation: RAT, LIVER, S-9, AROCLOR 1254 (10 OR 30%), Method: PREINCUBATION
Setting [4] is: Test System: AMES SALMONELLA TYPHIMURIUM, Strain/Indicator: TA98, Metabolic Activation: HAMSTER, LIVER, S-9, AROCLOR 1254 (10 OR 30%), Method: PREINCUBATION
Setting [5] is: Test System: AMES SALMONELLA TYPHIMURIUM, Strain/Indicator: TA98, Metabolic Activation: NONE, Method: PREINCUBATION
[6] abbreviates: Test System: AMES SALMONELLA TYPHIMURIUM, Strain/Indicator: TA98, Metabolic Activation: RAT, LIVER, S-9, AROCLOR 1254 (10 OR 30%), Method: PREINCUBATION
The mark [7] stands for this setting: Test System: AMES SALMONELLA TYPHIMURIUM, Strain/Indicator: TA100, Metabolic Activation: HAMSTER, LIVER, S-9, AROCLOR 1254 (10 OR 30%), Method: PREINCUBATION
[8] abbreviates: Test System: AMES SALMONELLA TYPHIMURIUM, Strain/Indicator: TA100, Metabolic Activation: NONE, Method: PREINCUBATION
Setting [9] is: Test System: AMES SALMONELLA TYPHIMURIUM, Strain/Indicator: TA100, Metabolic Activation: RAT, LIVER, S-9, AROCLOR 1254 (10 OR 30%), Method: PREINCUBATION
Where [10] appears, read: Test System: AMES SALMONELLA TYPHIMURIUM, Strain/Indicator: TA1535, Metabolic Activation: HAMSTER, LIVER, S-9, AROCLOR 1254 (10 OR 30%), Method: PREINCUBATION
Where [11] appears, read: Test System: AMES SALMONELLA TYPHIMURIUM, Strain/Indicator: TA1535, Metabolic Activation: NONE, Method: PREINCUBATION
Setting [12] is: Test System: AMES SALMONELLA TYPHIMURIUM, Strain/Indicator: TA1535, Metabolic Activation: RAT, LIVER, S-9, AROCLOR 1254 (10 OR 30%), Method: PREINCUBATION

For the compound `Nc1ccccc1C(=O)OCCc1ccccc1`, the mutagenic call by setting is: under setting [1], “inactive; negative”; under setting [2], “inactive; negative”; under setting [3], “inactive; negative”; under setting [4], “inactive; negative”; under setting [5], “inactive; negative”; under setting [6], “inactive; negative”. The mutagenic call is, setting by setting: under setting [7], “inactive; negative”; under setting [8], “inactive; negative”; under setting [9], “inactive; negative”; under setting [10], “inactive; negative”; under setting [11], “inactive; negative”; under setting [12], “inactive; negative”.
As to `C1=C\CC/C=C\CC/1.C1=C\CC/C=C\CC/1.[Ni]`, the mutagenic call runs as follows: (Test System: AMES SALMONELLA TYPHIMURIUM, Strain/Indicator: TA97, Metabolic Activation: HAMSTER, LIVER, S-9, AROCLOR 1254 (10%), Method: PREINCUBATION) “inactive; negative”; (Test System: AMES SALMONELLA TYPHIMURIUM, Strain/Indicator: TA97, Metabolic Activation: HAMSTER, LIVER, S-9, AROCLOR 1254 (30%), Method: PREINCUBATION) “inactive; negative”; under setting [2], “inactive; negative”; (Test System: AMES SALMONELLA TYPHIMURIUM, Strain/Indicator: TA97, Metabolic Activation: RAT, LIVER, S-9, AROCLOR 1254 (10%), Method: PREINCUBATION) “inactive; negative”; (Test System: AMES SALMONELLA TYPHIMURIUM, Strain/Indicator: TA97, Metabolic Activation: RAT, LIVER, S-9, AROCLOR 1254 (30%), Method: PREINCUBATION) “inactive; negative”; (Test System: AMES SALMONELLA TYPHIMURIUM, Strain/Indicator: TA98, Metabolic Activation: HAMSTER, LIVER, S-9, AROCLOR 1254 (10%), Method: PREINCUBATION) “inactive; negative”. Besides, the mutagenic call is, setting by setting: under setting [5], “inactive; negative”; (Test System: AMES SALMONELLA TYPHIMURIUM, Strain/Indicator: TA98, Metabolic Activation: RAT, LIVER, S-9, AROCLOR 1254 (10%), Method: PREINCUBATION) “inactive; negative”; (Test System: AMES SALMONELLA TYPHIMURIUM, Strain/Indicator: TA100, Metabolic Activation: HAMSTER, LIVER, S-9, AROCLOR 1254 (10%), Method: PREINCUBATION) “inactive; negative”; (Test System: AMES SALMONELLA TYPHIMURIUM, Strain/Indicator: TA100, Metabolic Activation: HAMSTER, LIVER, S-9, AROCLOR 1254 (30%), Method: PREINCUBATION) “inactive; negative”; under setting [8], “inactive; negative”; (Test System: AMES SALMONELLA TYPHIMURIUM, Strain/Indicator: TA100, Metabolic Activation: RAT, LIVER, S-9, AROCLOR 1254 (10%), Method: PREINCUBATION) “active; positive”. For the same compound, the mutagenic call reads like this: (Test System: AMES SALMONELLA TYPHIMURIUM, Strain/Indicator: TA100, Metabolic Activation: RAT, LIVER, S-9, AROCLOR 1254 (30%), Method: PREINCUBATION) “inactive; negative”; (Test System: AMES SALMONELLA TYPHIMURIUM, Strain/Indicator: TA1535, Metabolic Activation: HAMSTER, LIVER, S-9, AROCLOR 1254 (10%), Method: PREINCUBATION) “inactive; negative”; under setting [11], “inactive; negative”; (Test System: AMES SALMONELLA TYPHIMURIUM, Strain/Indicator: TA1535, Metabolic Activation: RAT, LIVER, S-9, AROCLOR 1254 (10%), Method: PREINCUBATION) “inactive; negative”; (Test System: Ames Salmonella typhimurium, Strain/Indicator: TA100, Metabolic Activation: None, Method: Preincubation) “inactive; negative”; (Test System: Ames Salmonella typhimurium, Strain/Indicator: TA100, Metabolic Activation: Rat, Liver, S9, Phenobarbital and 5,6-benzoflavone, Method: Preincubation) “inactive; negative”. Further, the mutagenic call was “inactive; negative” (Test System: Ames Salmonella typhimurium, Strain/Indicator: TA102, Metabolic Activation: None, Method: Preincubation); “inactive; negative” (Test System: Ames Salmonella typhimurium, Strain/Indicator: TA102, Metabolic Activation: Rat, Liver, S9, Phenobarbital and 5,6-benzoflavone, Method: Preincubation).
Take `CCCCCCCCc1ccc(Nc2ccc(CCCCCCCC)cc2)cc1`: the mutagenic call by setting is: (End Point: IN VITRO CHROMOSOMAL ABERRATIONS, Test System: CHINESE HAMSTER LUNG CELLS (CHL), Metabolic Activation: NONE) “inactive; negative”; (End Point: IN VITRO CHROMOSOMAL ABERRATIONS, Test System: CHINESE HAMSTER LUNG CELLS (CHL), Metabolic Activation: RAT, LIVER, S-9, KC-400) “inactive; negative”; (End Point: IN VITRO CHROMOSOMAL ABERRATIONS, Test System: CHINESE HAMSTER OVARY CELLS (CHO), Metabolic Activation: NONE) “inactive; negative”; (End Point: IN VITRO CHROMOSOMAL ABERRATIONS, Test System: CHINESE HAMSTER OVARY CELLS (CHO), Metabolic Activation: RAT, LIVER, S-9, AROCLOR 1254) “inactive; negative”; (End Point: IN VITRO CHROMOSOMAL ABERRATIONS, Test System: CHO-LB CELLS, Metabolic Activation: NONE) “inactive; negative”; (End Point: IN VITRO CHROMOSOMAL ABERRATIONS, Test System: CHO-LB CELLS, Metabolic Activation: RAT, LIVER, S-9, AROCLOR 1254) “inactive; negative”. Further, the mutagenic call is, setting by setting: under setting [1], “inactive; negative”; under setting [2], “inactive; negative”; under setting [3], “inactive; negative”; under setting [4], “inactive; negative”; under setting [5], “inactive; negative”; under setting [6], “inactive; negative”. Besides, the mutagenic call is, setting by setting: under setting [7], “inactive; negative”; under setting [8], “inactive; negative”; under setting [9], “inactive; negative”; under setting [10], “inactive; negative”; under setting [11], “inactive; negative”; under setting [12], “inactive; negative”. Moreover, the mutagenic call reads like this: (Test System: AMES SALMONELLA TYPHIMURIUM, Strain/Indicator: TA1537, Metabolic Activation: HAMSTER, LIVER, S-9, AROCLOR 1254 (30%), Method: PREINCUBATION) “inactive; negative”; (Test System: AMES SALMONELLA TYPHIMURIUM, Strain/Indicator: TA1537, Metabolic Activation: NONE, Method: PREINCUBATION) “inactive; negative”; (Test System: AMES SALMONELLA TYPHIMURIUM, Strain/Indicator: TA1537, Metabolic Activation: RAT, LIVER, S-9, AROCLOR 1254 (30%), Method: PREINCUBATION) “inactive; negative”.
`O=S(Cl)Cl`: the mutagenic call is, setting by setting: (Test System: AMES SALMONELLA TYPHIMURIUM, Strain/Indicator: TA100, Metabolic Activation: HAMSTER, LIVER, S-9, AROCLOR 1254 (2.5-20%), Method: PREINCUBATION) “active; positive”; (Test System: AMES SALMONELLA TYPHIMURIUM, Strain/Indicator: TA102, Metabolic Activation: HAMSTER, LIVER, S-9, AROCLOR 1254, Method: PREINCUBATION) “active; positive”; (Test System: AMES SALMONELLA TYPHIMURIUM, Strain/Indicator: TA102, Metabolic Activation: RAT, LIVER, S-9, AROCLOR 1254, Method: PREINCUBATION) “active; positive”; (Test System: Mouse lymphoma, Strain/Indicator: L5178Y (tk+/tk-), Metabolic Activation: None, Method: Suspension/plate) “active; equivocal (previous evaluation positive)”; (Test System: Mouse lymphoma, Strain/Indicator: L5178Y (tk+/tk-), Metabolic Activation: Rat, Liver, S-9, Aroclor 1254, Method: Suspension/plate) “inactive; inconclusive (previous evaluation negative)”.
